Experimental data as given in paper PMC7226045, “Ensartinib (X-396) Effectively Modulates Pharmacokinetic Resistance Mediated by ABCB1 and ABCG2 Drug Efflux Transporters and CYP3A4 Biotransformation Enzyme” (Cancers, 2020).

Legend:
[1] = test system: HepG2-CYP3A4 cells; experiment: Docetaxel combination assay (MTT), HepG2-CYP3A4; assay type: cell-based, human; conditions: 1 µM docetaxel
Procedure: (§1) MTT proliferation assay was performed as described previously.
(§2) Cell viability was measured after a 48 h incubation using the MTT method as described above. […] Sensitization effects of < 0%, 0%, and >0% indicate antagonism, additivity, and synergism, respectively.

[2] = test system: MDCKII-ABCB1 cells; experiment: MTT proliferation / drug combination assay, MDCKII-ABCB1; conditions: MDCKII-ABCB1
Procedure: MTT proliferation assay was performed as described previously. Cells were seeded on a 96-well culture plate at densities (in units of cells/well) of 1.3 × 10^4 for MDCKII-par, MDCKII-ABCB1, MDCKII-ABCG2, and MDCKII-ABCC1; 1.2 × 10^4 for A431-par, A431-ABCB1, A431-ABCG2 and A431-ABCC1; 1.2 × 10^4 for NCI-H1299; 2.0 × 10^4 for Caco-2; 5.0 × 10^4 for LS174T; and 6.0 × 10^4 for HepG2-CYP3A4 and HepG2-EV. After seeding, the cells were cultured for 24 h, then the media was removed and the cells were treated with serial dilutions of a drug or drug combination for 48 h. Vehicles containing media and 40% DMSO in media served as 100% and 0% viability controls, respectively. Upon completion of the 48 h period, the cells were washed once with 1× PBS, the media was replaced with an MTT solution in Opti-MEM (1 mg/mL), and the cells were incubated under standard conditions for 60 min. MTT solution was carefully removed and the resulting formazan crystals were immediately solubilized in DMSO. The cells were then shaken gently for 10 min, after which absorbance of their lysate was measured at 570 nm and 690 nm using a microplate reader (Infinite M200, Tecan, Salzburg, Austria); background values obtained at 690 nm were subtracted from the measurements obtained at 570 nm. This method was used to assess the effect of ABC transporters on sensitivity to ensartinib, in drug combination assays, and to identify drug concentrations appropriate for use in induction studies.
(§3) Experiments focusing on the modulation of ABC transporter-mediated resistance were performed as described previously. The parent MDCKII and HL60 cells and their ABCB1-, ABCG2-, and ABCC1-overexpressing counterparts were seeded at the densities specified above onto 96-well culture plates and cultured for 24 h. The medium was subsequently replaced with serial dilutions of ensartinib alone or with various concentrations of a model MDR-susceptible cytostatic agent (daunorubicin or mitoxantrone) with or without 10 µM ensartinib. After 48 h incubation, the cells’ viability was determined as described above. In addition to performing IC50-shift analyses, the viability measurements were converted to FA (fraction of cells affected) values and the effects of drug combinations were quantified using the Chou-Talalay combination index (CI) method as implemented in CompuSyn 3.0.1 (ComboSyn Inc., Paramus, NJ, USA). The effects of concomitantly administered drugs were classified as synergistic (CI < 0.9), additive (0.9 < CI < 1.1), or antagonistic (CI > 1.1) based on the computed CI values.

[3] = molecular target: T1, CYP3A5 (Homo sapiens, UniProt P20815); experiment: Vivid CYP screening kit, recombinant CYP3A5; assay type: biochemical; conditions: recombinant enzyme, 15 min incubation, absolute IC50; read-out: CYP3A5 inhibition IC50
T1 construct: purchased Thermo Fisher Scientific; host or cells: insect microsomal fractions
T1 sequence (P20815 whole entry): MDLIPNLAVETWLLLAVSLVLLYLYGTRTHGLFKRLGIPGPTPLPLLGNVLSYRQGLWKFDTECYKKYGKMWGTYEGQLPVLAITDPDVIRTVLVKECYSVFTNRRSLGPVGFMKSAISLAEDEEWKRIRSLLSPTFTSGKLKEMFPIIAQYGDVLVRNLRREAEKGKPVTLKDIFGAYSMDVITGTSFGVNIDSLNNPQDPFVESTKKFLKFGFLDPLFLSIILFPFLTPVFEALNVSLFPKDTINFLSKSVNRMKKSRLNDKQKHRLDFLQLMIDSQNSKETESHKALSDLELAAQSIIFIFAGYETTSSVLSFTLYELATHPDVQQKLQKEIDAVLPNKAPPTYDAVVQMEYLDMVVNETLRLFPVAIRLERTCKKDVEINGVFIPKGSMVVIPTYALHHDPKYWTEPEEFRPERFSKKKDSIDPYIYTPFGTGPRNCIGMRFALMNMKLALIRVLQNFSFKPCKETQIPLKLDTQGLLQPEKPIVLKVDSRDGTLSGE
Procedure: CYP inhibitory assay was performed as described previously. Experiments were performed with commercial Vivid CYP screening kits containing insect microsomal fractions enriched with a specific human CYP isoform, human CYP reductase, and in some cases, human cytochrome b5. The potential inhibitory activity of ensartinib toward CYP1A2, CYP2B6, CYP2C8, CYP2C9, CYP2C19, CYP2D6, CYP3A4, and CYP3A5 (i.e., all CYP isoforms that drug regulatory authorities recommend for testing of inhibition by new molecular entities) was then examined. Experiments were performed using a kinetic mode in black 96-well plates according to the manufacturer´s instructions. Briefly, 5-point serial dilutions of ensartinib or the model inhibitor recommended by the manufacturer in buffer were transferred into the wells, then a master mix consisting of a CYP isoenzyme with an NADPH regeneration system in buffer was added. After a 10 min pre-incubation, the reaction was initiated by adding a mixture of NADP^+ and the appropriate Vivid substrate, after which fluorescence was measured at 1 min intervals for 60 min using an Infinite M200 Pro microplate reader (Tecan, Männedorf, Switzerland). The enzyme concentration and incubation interval used for data evaluation (15 min) placed the systems within the linear regions of the appropriate reaction velocity curves. […]

[4] = test system: HepG2-EV cells; experiment: Docetaxel combination assay (MTT), HepG2-EV; assay type: cell-based, human; conditions: 1 µM docetaxel, <0% antagonism, =0% additivity, >0% synergism
Procedure: as §1, §2

[5] = test system: HL60-ABCG2 cells; experiment: XTT proliferation / drug combination assay, HL60-ABCG2; assay type: cell-based, human
Procedure: (§4) The MTT method is not readily adapted for use with suspension cell cultures, therefore the XTT assay was used to assess the proliferation of HL60 cells. Briefly, HL60-par, HL60-ABCB1, HL60-ABCG2, and HL60-ABCC1 cells were seeded at 2 × 10^4 cells/well in 96-well culture plates. Immediately after seeding, dilutions of the tested drugs or drug combinations were added to the cells. The plates were then incubated under standard conditions (37 °C, 5% CO2) for 48 h, after which XTT solution in PBS (1 mg/mL) and phenazine methosulfate (7.50 µg/mL) were added to the cells and the plates were incubated for another 5 h. Finally, the cells’ absorbance was measured at 450 nm using a microplate reader (Infinite M200, Tecan, Salzburg, Austria). This method was used to assess the effect of ABC transporters on sensitivity to ensartinib and in drug combination assays.
as §3

[6] = as above; assay type: cell-based, human; conditions: human, HL60-ABCG2 cells, 48 h, XTT, read-out: IC50, sensitivity to ensartinib
Procedure: as §4, §3

C[C@@H]1CN(C(=O)c2ccc(NC(=O)c3cc(O[C@H](C)c4c(Cl)ccc(F)c4Cl)c(N)nn3)cc2)C[C@H](C)N1 [ensartinib, Ensartinib]
docetaxel sensitization in CYP3A4-overexpressing cells ([1]; 25 µM ensartinib (but not 15 µM), 48 h MTT): comparable to that induced by ketoconazole | sensitization effect of combination with docetaxel ([1]; HepG2-CYP3A4, <0% antagonism, =0% additivity, >0% synergism): synergistic | combination effect (Chou-Talalay combination index) ([2]; 10 µM ensartinib with daunorubicin): synergistic (synergistic (CI < 0.9)) | RR (reversal ratio) ([2]; daunorubicin, IC50 single drug / IC50 combined with 10 µM ensartinib): 11.2 | IC50 [3]: 19.1 µM | sensitization effect of combination with docetaxel [4]: antagonistic | combination effect (Chou-Talalay combination index) ([5]; 10 µM ensartinib with mitoxantrone): synergistic (synergistic (CI < 0.9)) | RR (reversal ratio) ([5]; mitoxantrone, IC50 single drug / IC50 combined with 10 µM ensartinib): 18.6 | IC50 at 48 h [6]: 24.3 µM
